Assay results from PubChem BioAssay (NCI).
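Values below derive from 48-hour exposures of cells grown in 96-well plates, with endpoints linearly interpolated between the two concentrations bracketing the appropriate inhibition level. The concentration for 50% growth inhibition is given as GI50. The concentration for full growth arrest is given as TGI.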

What was measured:
Assay in all cases: growth of human tumour cells (NCI), 48 h
[1] = test system: 786-0 renal
[2] = test system: A498 renal
[3] = test system: A549 NSCLC
[4] = test system: ACHN renal
[5] = test system: BT-549 breast
[6] = test system: CAKI-1 renal
[7] = test system: CCRF-CEM leukemia
[8] = test system: COLO 205 colon
[9] = test system: DU-145 prostate
[10] = test system: HCC-2998 colon
[11] = test system: HCT-116 colon
[12] = test system: HCT-15 colon
[13] = test system: HL-60(TB) leukemia
[14] = test system: HOP-62 NSCLC
[15] = test system: HOP-92 NSCLC
[16] = test system: HS 578T breast
[17] = test system: HT29 colon
[18] = test system: IGROV1 ovarian
[19] = test system: K-562 leukemia
[20] = test system: KM12 colon
[21] = test system: LOX IMVI melanoma
[22] = test system: M14 melanoma
[23] = test system: MALME-3M melanoma
[24] = test system: MCF7 breast
[25] = test system: MDA-MB-231 breast
[26] = test system: MDA-MB-435
[27] = test system: MOLT-4 leukemia
[28] = test system: NCI-H226 lung
[29] = test system: NCI-H23 lung
[30] = test system: NCI-H460 lung
[31] = test system: NCI-H522 lung
[32] = test system: NCI/ADR-RES ovarian
[33] = test system: OVCAR-3 ovarian
[34] = test system: OVCAR-4 ovarian
[35] = test system: OVCAR-5 ovarian
[36] = test system: OVCAR-8 ovarian
[37] = test system: PC-3 prostate
[38] = test system: RPMI-8226 leukemia
[39] = test system: RXF 393 renal
[40] = test system: SF-268 CNS
[41] = test system: SF-295 CNS
[42] = test system: SF-539 CNS
[43] = test system: SK-MEL-2 melanoma
[44] = test system: SK-MEL-28 melanoma
[45] = test system: SK-MEL-5 melanoma
[46] = test system: SK-OV-3 ovarian
[47] = test system: SN12C renal
[48] = test system: SNB-19 CNS
[49] = test system: SNB-75 CNS
[50] = test system: SR leukemia
[51] = test system: SW-620 colon
[52] = test system: T-47D breast
[53] = test system: TK-10 renal
[54] = test system: U251 CNS
[55] = test system: UACC-257 melanoma
[56] = test system: UACC-62 melanoma
[57] = test system: UO-31 renal

For COc1ccc(OC)c(C(=O)c2oc3ccc(Br)cc3c2N)c1, the GI50 [1] was 0.581 µM, the TGI [1] was 47.4 µM and the GI50 [2] was 0.0923 µM. For the same molecule, the TGI [2] was 1.56 µM, the GI50 [3] was 0.493 µM and the TGI [3] was over 54.6 µM. For the same molecule, the GI50 [4] was 0.627 µM, the TGI [4] was over 65.1 µM and the GI50 [5] was 0.584 µM. For the same molecule, the TGI [5] was 21.1 µM, the GI50 [6] was 0.372 µM and the TGI [6] was over 100 µM. It also gave a GI50 [7] of 0.332 µM, a TGI [7] of 24.1 µM and a GI50 [8] of 0.406 µM. For the same molecule, the TGI [8] was 2.11 µM, the GI50 [9] was 0.604 µM and the TGI [9] was 17.3 µM. For the same molecule, the GI50 [10] was 1.32 µM, the TGI [10] was 12.8 µM and the GI50 [11] was 0.346 µM. For the same molecule, the TGI [11] was 13.9 µM, the GI50 [12] was 0.214 µM and the TGI [12] was 14.2 µM. It also gave a GI50 [13] of 0.27 µM, a TGI [13] of 10.3 µM and a GI50 [14] of 0.49 µM. The TGI [14] was over 50.6 µM, the GI50 [15] was 1.71 µM and the TGI [15] was 38.1 µM. It also gave a GI50 [16] of 0.403 µM, a TGI [16] of over 64.8 µM and a GI50 [17] of 0.326 µM. The TGI [17] was 10.7 µM, the GI50 [18] was 2.13 µM and the TGI [18] was over 87.4 µM. It also gave a GI50 [19] of 0.082 µM, a TGI [19] of 35.2 µM and a GI50 [20] of 0.348 µM. The TGI [20] was 18.4 µM, the GI50 [21] was 0.581 µM and the TGI [21] was 22.4 µM. The GI50 [22] was 0.303 µM, the TGI [22] was 16.3 µM and the GI50 [23] was 0.339 µM. For the same molecule, the TGI [23] was 46.8 µM, the GI50 [24] was 0.289 µM and the TGI [24] was over 48.2 µM. It also gave a GI50 [25] of 0.847 µM, a TGI [25] of 26.7 µM and a GI50 [26] of 0.0466 µM. It also gave a TGI [26] of 0.253 µM, a GI50 [27] of 0.425 µM and a TGI [27] of 23.7 µM. For the same molecule, the GI50 [28] was 2.38 µM, the TGI [28] was over 100 µM and the GI50 [29] was 0.649 µM. For the same molecule, the TGI [29] was 24 µM, the GI50 [30] was 0.375 µM and the TGI [30] was 12.4 µM. It also gave a GI50 [31] of 0.321 µM, a TGI [31] of 4.14 µM and a GI50 [32] of 0.341 µM. The TGI [32] was over 77.7 µM, the GI50 [33] was 0.347 µM and the TGI [33] was 3.28 µM. The GI50 [34] was 3.61 µM, the TGI [34] was over 100 µM and the GI50 [35] was 1.56 µM. For the same molecule, the TGI [35] was over 51.7 µM, the GI50 [36] was 0.576 µM and the TGI [36] was 97.9 µM. For the same molecule, the GI50 [37] was 0.58 µM, the TGI [37] was over 51 µM and the GI50 [38] was 0.37 µM. It also gave a TGI [38] of 6.51 µM, a GI50 [39] of 0.3 µM and a TGI [39] of 1.69 µM. For the same molecule, the GI50 [40] was 0.725 µM, the TGI [40] was over 59.5 µM and the GI50 [41] was 0.286 µM. It also gave a TGI [41] of 2.61 µM, a GI50 [42] of 0.237 µM and a TGI [42] of 0.712 µM. For the same molecule, the GI50 [43] was 0.357 µM, the TGI [43] was 4.34 µM and the GI50 [44] was 0.61 µM. For the same molecule, the TGI [44] was 26.2 µM, the GI50 [45] was 0.41 µM and the TGI [45] was 16.9 µM. The GI50 [46] was 0.515 µM, the TGI [46] was 7.07 µM and the GI50 [47] was 0.648 µM. The TGI [47] was 29.3 µM, the GI50 [48] was 0.901 µM and the TGI [48] was over 100 µM. The GI50 [49] was 0.253 µM, the TGI [49] was 1.68 µM and the GI50 [50] was 0.193 µM. For the same molecule, the TGI [50] was 19.1 µM, the GI50 [51] was 0.332 µM and the TGI [51] was over 66.8 µM. The GI50 [52] was 0.452 µM, the TGI [52] was over 67.6 µM and the GI50 [53] was 1.74 µM. It also gave a TGI [53] of 87.7 µM, a GI50 [54] of 0.397 µM and a TGI [54] of 16.4 µM. The GI50 [55] was 0.392 µM, the TGI [55] was 21.8 µM and the GI50 [56] was 0.432 µM. For the same molecule, the TGI [56] was 14.3 µM, the GI50 [57] was 0.707 µM and the TGI [57] was over 69.3 µM.
